Measured values published in US20240173333A1, “Treating Alagille Syndrome (ALGS)” (priority 2022, published 2024).
Where two headings read alike, the source gives them in different places.

What was measured:
[1] = Water content and water uptake of crystal modification 1 with relative humidity; type: physicochemical
From the text: Crystal modification 1 contains void volumes that are capable of containing up to about 2 moles of water associated with the crystal per mole of odevixibat, depending on the relative humidity. This form is therefore formally a channel hydrate. At about 30% relative humidity, however, crystal modification 1 contains a substantially stoichiometric amount of about 1.5 moles of water per mole of organic compound and is thus a sesquihydrate. The substantially stoichiometric amount of water is considered advantageous, as the water content of the crystals remains substantially constant even with humidity changes within the normal relative humidity range of about 30% to about 70% RH.
Whereas crystal modification 1 is a sesquihydrate containing about 3.5% (w/w) water at about 30% relative humidity (based on the total crystal weight), it has been observed that the crystal can take up an additional 1.5% (w/w) water when the humidity is increased up to 95% RH. The sorption and desorption of this additional water is fully reversible. The additional water may be adsorbed on the surface or may further fill the channels of the structure. […]

patients with ALGS = conditions: cited from earlier work

Question: Which “water content (based on the total crystal weight)” value ([1]; about 30% relative humidity) does the source give for `CCCCC1(CCCC)CN(c2ccccc2)c2cc(SC)c(OCC(=O)N[C@@H](C(=O)N[C@@H](CC)C(=O)O)c3ccc(O)cc3)cc2S(=O)(=O)N1` [crystal modification 1] here?
Answer: about 3.5 % (w/w)

Question: What about the “additional water taken up” value ([1]; humidity increased up to 95% RH, fully reversible) of the same compound?
Answer: 1.5 % (w/w)

Question: With `CCCCC1(CCCC)CS(=O)(=O)c2ccc(N(C)C)cc2[C@@H](c2ccc(OCc3ccc(C[N+]45CCN(CC4)CC5)cc3)cc2)[C@H]1O` [maralixibat] as the compound, how does the transaminase levels (patients with ALGS; patients with ALGS) read?
Answer: Elevations in transaminase levels have been reported

Question: Which transaminase levels (patients with ALGS; human, in vivo) does the source give for cholestyramine here?
Answer: Elevations in transaminase levels have been reported
